Measured values: PubChem BioAssay AID1259407 (Chemical Carcinogenesis Research Information System (CCRIS), 2018)
Calls of active or inactive are those of the source. The rule behind the calls is not given here.

System: CCRIS mutagenicity, Ames/micronucleus/aberration tests
Assay: CCRIS mutagenicity studies
[1] = Test System: AMES SALMONELLA TYPHIMURIUM, Strain/Indicator: TA97, Metabolic Activation: NONE, Method: PREINCUBATION
[2] = Test System: AMES SALMONELLA TYPHIMURIUM, Strain/Indicator: TA98, Metabolic Activation: NONE, Method: PREINCUBATION
[3] = Test System: AMES SALMONELLA TYPHIMURIUM, Strain/Indicator: TA100, Metabolic Activation: NONE, Method: PREINCUBATION
[4] = Test System: AMES SALMONELLA TYPHIMURIUM, Strain/Indicator: TA1535, Metabolic Activation: NONE, Method: PREINCUBATION
[5] = Test System: E. COLI, Strain/Indicator: WP2 UVRA, Metabolic Activation: NONE, Method: STANDARD PLATE

For [CH3][Hg][Cl], the mutagenic call (End Point: IN VITRO CHROMOSOMAL ABERRATIONS, Test System: CHO CELLS, Metabolic Activation: NONE) was “active; positive (structural changes)”, the mutagenic call (End Point: IN VITRO MICRONUCLEUS, Test System: CHL/IU CELLS, Metabolic Activation: NONE) was “active; positive” and the mutagenic call (End Point: IN VITRO MICRONUCLEUS, Test System: HUMAN PERIPHERAL LYMPHOCYTES, Metabolic Activation: NONE) was “active; positive”. The mutagenic call (End Point: IN VITRO MICRONUCLEUS, Test System: HUMAN PERIPHERAL LYMPHOCYTES, Metabolic Activation: NONE, Method: FISH (CENTROMERIC SIGNAL CONTENT)) was “active; positive”, the mutagenic call (Test System: AMES SALMONELLA TYPHIMURIUM, Strain/Indicator: TA97, Metabolic Activation: HAMSTER, LIVER, S-9, AROCLOR 1254 (10 OR 30%), Method: PREINCUBATION) was “inactive; negative” and the mutagenic call [1] was “inactive; negative”. The mutagenic call (Test System: AMES SALMONELLA TYPHIMURIUM, Strain/Indicator: TA97, Metabolic Activation: RAT, LIVER, S-9, AROCLOR 1254 (10 OR 30%), Method: PREINCUBATION) was “inactive; negative”, the mutagenic call (Test System: AMES SALMONELLA TYPHIMURIUM, Strain/Indicator: TA98, Metabolic Activation: HAMSTER, LIVER, S-9, AROCLOR 1254 (10 OR 30%), Method: PREINCUBATION) was “inactive; negative” and the mutagenic call [2] was “inactive; negative”. For the same compound, the mutagenic call (Test System: AMES SALMONELLA TYPHIMURIUM, Strain/Indicator: TA98, Metabolic Activation: RAT, LIVER, S-9, AROCLOR 1254 (10 OR 30%), Method: PREINCUBATION) was “inactive; negative”, the mutagenic call (Test System: AMES SALMONELLA TYPHIMURIUM, Strain/Indicator: TA100, Metabolic Activation: HAMSTER, LIVER, S-9, AROCLOR 1254 (10 OR 30%), Method: PREINCUBATION) was “inactive; negative” and the mutagenic call [3] was “inactive; negative”. For the same compound, the mutagenic call (Test System: AMES SALMONELLA TYPHIMURIUM, Strain/Indicator: TA100, Metabolic Activation: RAT, LIVER, S-9, AROCLOR 1254 (10 OR 30%), Method: PREINCUBATION) was “inactive; negative”, the mutagenic call (Test System: AMES SALMONELLA TYPHIMURIUM, Strain/Indicator: TA1535, Metabolic Activation: HAMSTER, LIVER, S-9, AROCLOR 1254 (10 OR 30%), Method: PREINCUBATION) was “inactive; negative” and the mutagenic call [4] was “inactive; negative”. For the same compound, the mutagenic call (Test System: AMES SALMONELLA TYPHIMURIUM, Strain/Indicator: TA1535, Metabolic Activation: RAT, LIVER, S-9, AROCLOR 1254 (10 OR 30%), Method: PREINCUBATION) was “inactive; negative”, the mutagenic call (Test System: AMES SALMONELLA TYPHIMURIUM, Strain/Indicator: TA1537, Metabolic Activation: HAMSTER, LIVER, S-9, AROCLOR 1254 (10 OR 30%), Method: PREINCUBATION) was “inactive; negative” and the mutagenic call (Test System: AMES SALMONELLA TYPHIMURIUM, Strain/Indicator: TA1537, Metabolic Activation: NONE, Method: PREINCUBATION) was “inactive; negative”. The mutagenic call (Test System: AMES SALMONELLA TYPHIMURIUM, Strain/Indicator: TA1537, Metabolic Activation: RAT, LIVER, S-9, AROCLOR 1254 (10 OR 30%), Method: PREINCUBATION) was “inactive; negative”, the mutagenic call (Test System: E. COLI, Strain/Indicator: WP2 UVRA, Metabolic Activation: NONE, Method: SPOT TEST) was “active; positive” and the mutagenic call [5] was “active; positive”.
With CNc1ccc(N(CCO)CCO)cc1[N+](=O)[O-] the mutagenic call (End Point: IN VITRO CHROMOSOMAL ABERRATIONS, Test System: CHO-LB CELLS, Metabolic Activation: NONE) was “inactive; negative”, the mutagenic call (End Point: IN VITRO CHROMOSOMAL ABERRATIONS, Test System: CHO-LB CELLS, Metabolic Activation: RAT, LIVER, S-9, AROCLOR 1254) was “active; positive” and the mutagenic call (Test System: AMES SALMONELLA TYPHIMURIUM, Strain/Indicator: TA97, Metabolic Activation: HAMSTER, LIVER, S-9, AROCLOR 1254 (10%), Method: PREINCUBATION) was “active; positive”. For the same compound, the mutagenic call (Test System: AMES SALMONELLA TYPHIMURIUM, Strain/Indicator: TA97, Metabolic Activation: HAMSTER, LIVER, S-9, AROCLOR 1254, Method: PREINCUBATION) was “active; positive”, the mutagenic call [1] was “active; positive” and the mutagenic call (Test System: AMES SALMONELLA TYPHIMURIUM, Strain/Indicator: TA97, Metabolic Activation: RAT, LIVER, S-9, AROCLOR 1254 (10%), Method: PREINCUBATION) was “active; positive”. For the same compound, the mutagenic call (Test System: AMES SALMONELLA TYPHIMURIUM, Strain/Indicator: TA97, Metabolic Activation: RAT, LIVER, S-9, AROCLOR 1254, Method: PREINCUBATION) was “active; positive”, the mutagenic call (Test System: AMES SALMONELLA TYPHIMURIUM, Strain/Indicator: TA98, Metabolic Activation: HAMSTER, LIVER, S-9, AROCLOR 1254 (10%), Method: PREINCUBATION) was “active; positive” and the mutagenic call (Test System: AMES SALMONELLA TYPHIMURIUM, Strain/Indicator: TA98, Metabolic Activation: HAMSTER, LIVER, S-9, AROCLOR 1254, Method: PREINCUBATION) was “active; positive”. The mutagenic call [2] was “active; positive”, the mutagenic call (Test System: AMES SALMONELLA TYPHIMURIUM, Strain/Indicator: TA98, Metabolic Activation: NONE, Method: STANDARD PLATE) was “inactive; negative” and the mutagenic call (Test System: AMES SALMONELLA TYPHIMURIUM, Strain/Indicator: TA98, Metabolic Activation: RAT, LIVER, S-9, AROCLOR 1254 (10%), Method: PREINCUBATION) was “active; positive”. The mutagenic call (Test System: AMES SALMONELLA TYPHIMURIUM, Strain/Indicator: TA98, Metabolic Activation: RAT, LIVER, S-9, AROCLOR 1254, Method: PREINCUBATION) was “active; positive”, the mutagenic call (Test System: AMES SALMONELLA TYPHIMURIUM, Strain/Indicator: TA98, Metabolic Activation: RAT, LIVER, S-9, AROCLOR 1254, Method: STANDARD PLATE) was “inactive; negative” and the mutagenic call (Test System: AMES SALMONELLA TYPHIMURIUM, Strain/Indicator: TA100, Metabolic Activation: HAMSTER, LIVER, S-9, AROCLOR 1254 (10%), Method: PREINCUBATION) was “active; positive”. For the same compound, the mutagenic call (Test System: AMES SALMONELLA TYPHIMURIUM, Strain/Indicator: TA100, Metabolic Activation: HAMSTER, LIVER, S-9, AROCLOR 1254, Method: PREINCUBATION) was “active; positive”, the mutagenic call [3] was “active; positive” and the mutagenic call (Test System: AMES SALMONELLA TYPHIMURIUM, Strain/Indicator: TA100, Metabolic Activation: NONE, Method: STANDARD PLATE) was “inactive; negative”. For the same compound, the mutagenic call (Test System: AMES SALMONELLA TYPHIMURIUM, Strain/Indicator: TA100, Metabolic Activation: RAT, LIVER, S-9, AROCLOR 1254 (10%), Method: PREINCUBATION) was “active; positive”, the mutagenic call (Test System: AMES SALMONELLA TYPHIMURIUM, Strain/Indicator: TA100, Metabolic Activation: RAT, LIVER, S-9, AROCLOR 1254, Method: PREINCUBATION) was “active; positive” and the mutagenic call (Test System: AMES SALMONELLA TYPHIMURIUM, Strain/Indicator: TA100, Metabolic Activation: RAT, LIVER, S-9, AROCLOR 1254, Method: STANDARD PLATE) was “inactive; negative”. The mutagenic call (Test System: AMES SALMONELLA TYPHIMURIUM, Strain/Indicator: TA1535, Metabolic Activation: HAMSTER, LIVER, S-9, AROCLOR 1254 (10%), Method: PREINCUBATION) was “inactive; negative”, the mutagenic call (Test System: AMES SALMONELLA TYPHIMURIUM, Strain/Indicator: TA1535, Metabolic Activation: HAMSTER, LIVER, S-9, AROCLOR 1254, Method: PREINCUBATION) was “inactive; negative” and the mutagenic call [4] was “inactive; negative”. The mutagenic call (Test System: AMES SALMONELLA TYPHIMURIUM, Strain/Indicator: TA1535, Metabolic Activation: NONE, Method: STANDARD PLATE) was “inactive; negative”, the mutagenic call (Test System: AMES SALMONELLA TYPHIMURIUM, Strain/Indicator: TA1535, Metabolic Activation: RAT, LIVER, S-9, AROCLOR 1254 (10%), Method: PREINCUBATION) was “inactive; negative” and the mutagenic call (Test System: AMES SALMONELLA TYPHIMURIUM, Strain/Indicator: TA1535, Metabolic Activation: RAT, LIVER, S-9, AROCLOR 1254, Method: PREINCUBATION) was “inactive; negative”. The mutagenic call (Test System: AMES SALMONELLA TYPHIMURIUM, Strain/Indicator: TA1535, Metabolic Activation: RAT, LIVER, S-9, AROCLOR 1254, Method: STANDARD PLATE) was “inactive; negative”, the mutagenic call (Test System: AMES SALMONELLA TYPHIMURIUM, Strain/Indicator: TA1537, Metabolic Activation: NONE, Method: STANDARD PLATE) was “inactive; negative” and the mutagenic call (Test System: AMES SALMONELLA TYPHIMURIUM, Strain/Indicator: TA1537, Metabolic Activation: RAT, LIVER, S-9, AROCLOR 1254, Method: STANDARD PLATE) was “inactive; negative”. The mutagenic call [5] was “inactive; negative”, the mutagenic call (Test System: E. COLI, Strain/Indicator: WP2 UVRA, Metabolic Activation: RAT, LIVER, S-9, AROCLOR 1254, Method: STANDARD PLATE) was “inactive; negative” and the mutagenic call (Test System: MOUSE LYMPHOMA, Strain/Indicator: L5178Y (TK+/TK-), Metabolic Activation: RAT, LIVER, S-9, AROCLOR 1254, Method: SUSPENSION/PLATE) was “inactive; negative”. For the same compound, the mutagenic call (Test System: UDS MONKEY PRIMARY HEPATOCYTES, Strain/Indicator: THY INCORP (NON-S-PHASE), Metabolic Activation: NONE, Method: AUTORADIOGRAPHY) was “active; positive” and the mutagenic call (Test System: UDS RODENT PRIMARY HEPATOCYTES, Strain/Indicator: THY INCORP (NON-S-PHASE), Metabolic Activation: NONE, Method: AUTORADIOGRAPHY) was “active; positive”.
